Assay results taken from US5760176A, “Hydrophobic attachment site for adhesion peptides” (La Jolla Cancer Research Foundation, priority 1996, dated 1998).
Read-outs that look alike come from different tables or passages of the source. Non-standard residues stand in square brackets, D forms with d. Residues, ends and D or L forms follow the SMILES beside them. Sar = CNCC(=O)O

Tested on: MG-63 cells
[1] = Table III, phenylalanine as a hydrophobic domain, 100 μg/well

Procedure: The peptides were solubilized in 70% EtOH at a starting concentration of 1 mg/ml. […] The remaining wells contained 100 μl of 70% EtOH. Taking 100 μl from the 1 mg/ml solution in the first two wells, a serial dilution was performed out to 0.15 μg/well for each peptide. The plates were allowed to dry overnight at 37° C. in the presence of a desiccator.
The following day the peptide coated plates were used in a standard adhesion assay as described in Example III, using MG-63 cells, an osteosarcoma cell line available from American Type Tissue Culture.
The plates were washed lX using PBS, (151 mM NaCl/10 mM sodium phosphate, pH 7.4). The plates were incubated with DMEM (0.1 ml/well) containing bovine serum albumin (BSA 2.5 mg/ml; Sigma Chemical Co., St. Louis, Mo.) for one hour. Two×10^5 cells/ml (MG-63) were suspended in DMEM, and BSA (2.5 mg/ml). 100 μl of cell suspension was added per well and the plates are incubated at 37° C. in 7.5% CO2 /92.5% air for one hour. Afterwards, the plate was washed once in PBS. Attached cells were then fixed with 3% paraformaldehyde and stained overnight with 1% toluidine blue in 10% formaldehyde. The following day, the excess stain was removed and the plates were washed with H2 O; 100 μl of a 1% sodium dodecyl sulfate (SDS) solution was added to each well. The level of cell attachment was then measured, using a kinetic microplate reader (Molecular Devices,) by assessing the optical density at 630 nm.

CCCCCCCCCCCCCC(=O)O [Myristic acid]
percentage of maximum binding (cell attachment) (Table IV, myristic acid as hydrophobic carrier, 100 μg/well): 33 percentage of maximum binding
percentage of maximum binding (cell attachment) (Table IV, 6 μg/well): 45 percentage of maximum binding
percentage of maximum binding (cell attachment) (Table IV, 12 μg/well): 75 percentage of maximum binding
percentage of maximum binding (cell attachment) (Table IV, 25 μg/well): 50 percentage of maximum binding
percentage of maximum binding (cell attachment) (Table IV, 50 μg/well): 30 percentage of maximum binding

CNCC(=O)N[C@H](CCCNC(=N)N)C(=O)NCC(=O)N[C@@H](CC(=O)O)C(=O)N[C@@H](CO)C(=O)N1CCC[C@H]1C(=O)N[C@@H](C)C(=O)N[C@@H](CO)C(=O)N[C@@H](CO)C(=O)N[C@@H](CCCCN)C(=O)N[C@@H](CC(C)C)C(=O)N[C@@H](CC(C)C)C(=O)N[C@@H](CC(C)C)C(=O)N[C@@H](CC(C)C)C(=O)N[C@@H](CC(C)C)C(=O)N[C@@H](CC(C)C)C(N)=O [nMeG(dR)GDSPASSKL6 NH2] (H-[Sar][dR]GDSPASSKLLLLLL-NH2)
percentage of maximum binding (cell attachment): 9 percentage of maximum binding

CNCC(=O)N[C@H](CCCNC(=N)N)C(=O)NCC(=O)N[C@@H](CC(=O)O)C(=O)N[C@@H](CO)C(=O)N1CCC[C@H]1C(=O)N[C@@H](C)C(=O)N[C@@H](CO)C(=O)N[C@@H](CO)C(=O)N[C@@H](CCCCN)C(=O)N[C@@H](CO)C(=O)N[C@@H](CO)C(=O)N[C@@H](CCCNC(=N)N)C(=O)N[C@@H](CC(C)C)C(=O)N[C@@H](CC(C)C)C(=O)N[C@@H](CC(C)C)C(=O)N[C@@H](CC(C)C)C(=O)N[C@@H](CC(C)C)C(=O)N[C@@H](CC(C)C)C(=O)N[C@@H](CCCNC(=N)N)C(N)=O [nMeG(dR)GDSPASSKS2 RL6 RNH2] (H-[Sar][dR]GDSPASSKSSRLLLLLLR-NH2)
percentage of maximum binding (cell attachment): 38 percentage of maximum binding

CNCC(=O)N[C@H](CCCNC(=N)N)C(=O)NCC(=O)N[C@@H](CC(=O)O)C(=O)N[C@@H](CO)C(=O)N1CCC[C@H]1C(=O)N[C@@H](C)C(=O)N[C@@H](CO)C(=O)N[C@@H](CO)C(=O)N[C@@H](CCCCN)C(=O)N[C@@H](CO)C(=O)N[C@@H](CO)C(=O)N[C@@H](CO)C(=O)N[C@@H](CO)C(=O)N[C@@H](CCCNC(=N)N)C(=O)N[C@@H](CC(C)C)C(=O)N[C@@H](CC(C)C)C(=O)N[C@@H](CC(C)C)C(=O)N[C@@H](CC(C)C)C(=O)N[C@@H](CC(C)C)C(=O)N[C@@H](CC(C)C)C(=O)N[C@@H](CCCNC(=N)N)C(N)=O [nMeG(dR)GDSPASSKS4 RL6 RNH2] (H-[Sar][dR]GDSPASSKSSSSRLLLLLLR-NH2)
percentage of maximum binding (cell attachment): 76 percentage of maximum binding

XG(R)GDSPASSKL4 NH2 [Peptide L4]
percentage of maximum binding (cell attachment) (Table II, 1.5 μg/well peptide, MG-63 cells): 1 percentage of maximum binding
percentage of maximum binding (cell attachment) (Table II, 3 μg/well peptide, MG-63 cells): 1 percentage of maximum binding
percentage of maximum binding (cell attachment) (Table II, 6 μg/well peptide, MG-63 cells): 2 percentage of maximum binding
percentage of maximum binding (cell attachment) (Table II, 12 μg/well peptide, MG-63 cells): 10 percentage of maximum binding
percentage of maximum binding (cell attachment) (Table II, 25 μg/well peptide, MG-63 cells): 16 percentage of maximum binding
percentage of maximum binding (cell attachment) (Table II, 50 μg/well peptide, MG-63 cells): 12 percentage of maximum binding
percentage of maximum binding (cell attachment) (Table II, 100 μg/well peptide dried onto well, MG-63 cells): 44 percentage of maximum binding
promotion of cell attachment (result in words) (peptide coated 100 to 1.5 μg/well, MG-63 cells, summary of Table II): promoted marginal cell attachment only at the highest concentration of 100 μg/well

nMEGRGDSPASSKRF6 RNH2
percentage of maximum binding (cell attachment) [1]: 70 percentage of maximum binding
percentage of maximum binding (cell attachment) (Table III, 1.5 μg/well): 50 percentage of maximum binding
percentage of maximum binding (cell attachment) (Table III, 3 μg/well): 54 percentage of maximum binding
percentage of maximum binding (cell attachment) (Table III, 6 μg/well): 57 percentage of maximum binding
percentage of maximum binding (cell attachment) (Table III, 12 μg/well): 52 percentage of maximum binding
percentage of maximum binding (cell attachment) (Table III, 25 μg/well): 56 percentage of maximum binding
percentage of maximum binding (cell attachment) (Table III, 50 μg/well): 75 percentage of maximum binding

nMeG(dR)GDSPASSKRF4 RNH2 [nMeGRGDSPASSKRF4 RNH2]
percentage of maximum binding (cell attachment) [1]: 70 percentage of maximum binding
percentage of maximum binding (cell attachment) (Table III, 1.5 μg/well): 34 percentage of maximum binding
percentage of maximum binding (cell attachment) (Table III, 3 μg/well): 50 percentage of maximum binding
percentage of maximum binding (cell attachment) (Table III, 6 μg/well): 56 percentage of maximum binding
percentage of maximum binding (cell attachment) (Table III, 12 μg/well): 59 percentage of maximum binding
percentage of maximum binding (cell attachment) (Table III, 25 μg/well): 60 percentage of maximum binding
percentage of maximum binding (cell attachment) (Table III, 50 μg/well): 73 percentage of maximum binding

nMeGRGDSPASSKRL5 RNH2
percentage of maximum binding (cell attachment) [1]: 72 percentage of maximum binding
percentage of maximum binding (cell attachment) (Table III, 1.5 μg/well): 34 percentage of maximum binding
percentage of maximum binding (cell attachment) (Table III, 3 μg/well): 44 percentage of maximum binding
percentage of maximum binding (cell attachment) (Table III, 6 μg/well): 60 percentage of maximum binding
percentage of maximum binding (cell attachment) (Table III, 12 μg/well): 66 percentage of maximum binding
percentage of maximum binding (cell attachment) (Table III, 25 μg/well): 58 percentage of maximum binding
percentage of maximum binding (cell attachment) (Table III, 50 μg/well): 68 percentage of maximum binding

nMeGRGDSPASSKS3 RF6 RNH2
percentage of maximum binding (cell attachment) [1]: 69 percentage of maximum binding
percentage of maximum binding (cell attachment) (Table III, 1.5 μg/well): 70 percentage of maximum binding
percentage of maximum binding (cell attachment) (Table III, 3 μg/well): 70 percentage of maximum binding
percentage of maximum binding (cell attachment) (Table III, 6 μg/well): 65 percentage of maximum binding
percentage of maximum binding (cell attachment) (Table III, 12 μg/well): 66 percentage of maximum binding
percentage of maximum binding (cell attachment) (Table III, 25 μg/well): 60 percentage of maximum binding
percentage of maximum binding (cell attachment) (Table III, 50 μg/well): 69 percentage of maximum binding
